# Measured values from patent US5539132A, “Cerulenin compounds for fatty acid synthesis inhibition” (Johns Hopkins University, priority 1994, dated 1996).
# Assays:
# [1] = target: T1, FAS (fatty acid synthase), Cancer (Homo sapiens, UniProt P49327); assay: FAS enzymatic assay, crude extract of breast cancer cell line ZR-75-1 (NADPH oxidation); type: biochemical; conditions: ZR-75-1 crude cell extract, 30 min incubation at 10°-25° C.; read-out: IC50 for inhibition of FAS activity, Cancer
# T1 construct: using a crude cell extract of a cancer cell line or Saccharomyces cerevisiae; endogenous in cells; host or cells: ZR-75-1 breast cancer cell line (crude dialyzed digitonin extract)
# Experimental: Preparation of crude cell extracts: The potential of compounds to inhibit FAS enzymatic activity was determined using a crude cell extract of a cancer cell line or Saccharomyces cerevisiae. The breast cancer cell line ZR-75-1 was grown to confluence in RPMI with 10$FBS. The cells were harvested by scraping, washed once with cold phosphate buffered saline pH 7.5 and stored at -80° C. Extracts were prepared by thawing the cells in the presence of 4 vol. of 25 mM potassium phosphate pH 7.5, 1 mM EDTA, 1 mM DTT, 0.4% digitonin, 0.7 μg/ml pepstatin, 2 μg/ml aprotinin and 0.5 μg/ml leupeptin. Cells were homogenized with a Dounce type homogenizer for 20 strokes. Extracts were cleared by two sequential centrifugations at 30,000 xg, for 30 min each. The extract was dialyzed against 125 mM potassium phosphate pH 6.6, 1 mM EDTA, 1 mM DTT using a 100,000 molecular weight cut off membrane. The extract stored at 4° C. with 3 mM sodium azide. Yeast extracts were prepared from freeze-dried yeast. Yeast were reconstituted in 5 vol/g 100 mM potassium phosphate pH 6.5. Cells were harvested by centrifugation at 3,000 xg for 10 min. Cells were washed with 5 vol 100 mM potassium phosphate pH 6.5 and suspended in 2 vol. 125 mM potassium phosphate pH 6.6, 1 mM EDTA, 1 mM DTT, 0.7 μg/ml pepstatin, 2 μg/ml aprotinin and 0.5 μg/ml leupeptin. Sterile 0.5 mm glass beads were added (1/2 vol) and the mixture vortex vigorously for four 30 s intervals with 30 s rests on ice between mixes. Extracts were cleared by centrifugation and dialyzed as described above.
# Testing of compound activity: Compounds were tested for their ability to inhibit FAS enzymatic activity by incubating the compounds with the crude cell extracts and measuring residual FAS activity. The compounds were mixed with a crude cell extract to the desired concentration and the mixture incubated at 10°-25° C. for 30 min. Residual FAS activity was measured as described below. The concentration of compound giving 50% maximal activity defined the IC50 which was calculated from a 4-parameter equation of the dose-response curves.
# (§1) Enzymatic assay conditions: The FAS enzyme activity was measured by monitoring the oxidation of NADPH spectrophotometrically (Dils, R. and E. M. Carey, 1975, Fatty acid synthase from rabbit mammary gland. Methods in Enzymol. 35:74-83). A 50 μl portion of an extract or extract-compound mixture was mixed with 50 μl 250 mM potassium phosphate pH 6.6, 40 μM acetyl-CoA, 200 μM malonyl-CoA, 1 mM NADPH and 2 mM DTT. The initial rate of NADPH oxidation at 25° C. was measured by monitoring the decrease in absorbance at 340 nm.
# HS 27 cells = assay: Growth inhibition assay, HS 27 cells (crystal violet); type: cell-based; conditions: Homo sapiens, HS27, 72 h; 3 days with compound
# Experimental: (§2) Cells were seeded at 5×10^3 per well into 96-well plates and incubated for 3 days in RPMI, 10% FBS at 37° C. in a 5% CO2 :95% air atmosphere. Medium was removed and replaced with media plus compound. Compound doses were 10 serial dilutions from 200 μg/ml to 0.39 μg/ml. Cells were returned to the incubator for 3 additional days. The medium was removed and plates were washed twice with phosphate buffered saline. Wells were filled with 100 μl of 0.2% crystal violet in 2% ethanol for 10 min. Stain was removed from the wells and the plates were washed 3 times with distilled H2 O. After at least 4 h of drying wells were filled with 100 μl of 1% SDS and plates were shaken to disolve any dye crystals. Absorbance at 560 nm minus 650 nm in each well was measured using a Molecular Devices plate reader. IC50 values were calculated from 4-parameter curve-fits of the dose-response curves.
# SKBr 3 cells = assay: Growth inhibition assay, SKBr 3 cells (crystal violet); type: cell-based; conditions: Homo sapiens, SK-BR-3, 72 h; 3 days with compound
# Experimental: as §2
# [2] = system: fatty acid synthase expression in MCF-7 cells; conditions: Northern analysis; cited from earlier work
# acyl CoA-synthetase = conditions: for long-chain fatty acids; cited from earlier work
# [3] = system: Mycobacterium tuberculosis; conditions: cited from earlier work
# fatty acid synthase = conditions: cited from earlier work
# [4] = system: bacteria, actinomycetes, and mycobacteria; conditions: cited from earlier work
# [5] = system: myristoylation of proteins; conditions: cited from earlier work
# HIV protease = conditions: cited from earlier work
# [6] = target: T2, FAS (fatty acid synthase), Yeast (Saccharomyces cerevisiae, UniProt P19097); assay: FAS enzymatic assay, crude yeast extract (NADPH oxidation); type: biochemical; conditions: 30 min incubation at 10°-25° C., read-out: IC50 for inhibition of FAS activity, Yeast
# T2 construct: Yeast extracts were prepared from freeze-dried yeast; endogenous in cells; host or cells: freeze-dried Saccharomyces cerevisiae (crude glass-bead extract, dialyzed)
# Experimental: Preparation of crude cell extracts: The potential of compounds to inhibit FAS enzymatic activity was determined using a crude cell extract of a cancer cell line or Saccharomyces cerevisiae. The breast cancer cell line ZR-75-1 was grown to confluence in RPMI with 10$FBS. The cells were harvested by scraping, washed once with cold phosphate buffered saline pH 7.5 and stored at -80° C. Extracts were prepared by thawing the cells in the presence of 4 vol. of 25 mM potassium phosphate pH 7.5, 1 mM EDTA, 1 mM DTT, 0.4% digitonin, 0.7 μg/ml pepstatin, 2 μg/ml aprotinin and 0.5 μg/ml leupeptin. Cells were homogenized with a Dounce type homogenizer for 20 strokes. Extracts were cleared by two sequential centrifugations at 30,000 xg, for 30 min each. […]
# Testing of compound activity: Compounds were tested for their ability to inhibit FAS enzymatic activity by incubating the compounds with the crude cell extracts and measuring residual FAS activity. […] Residual FAS activity was measured as described below. […]
# as §1, with “A 50 μl portion of an extract or extract-compound mixture was mixed with 50 μl 250 mM potassium phosphate pH 6.6, 40 μM acetyl-CoA, 200 μM malonyl-CoA, 1 mM NADPH and 2 mM DTT.” left out
# Candida albicans = assay: Control organism susceptibility, Candida albicans; type: cell-based; conditions: read-out: MIC (control organism)
# [7] = system: mammary, colon, and prostatic carcinoma lines; conditions: U.S. Ser. No. 08/096,908 and its CIP; cited from earlier work
# [8] = target: rat liver acyl-CoA synthetase; conditions: read-out: concentration causing 50% inhibition of acyl-CoA synthetase; cited from earlier work
# Raji cells = conditions: cited from earlier work
# Hela cells = conditions: cited from earlier work
# Vero cells = conditions: cited from earlier work
# M. tuberculosis = assay: Radiometric (Bactec) susceptibility test, M. tuberculosis; type: cell-based; conditions: Mycobacterium tuberculosis
# [9] = system: panel of cell lines with varying levels of FAS enzyme activity; assay: Anti-proliferative effect on a panel of cell lines with varying levels of FAS; type: cell-based
# T1 sequence (P49327 whole entry): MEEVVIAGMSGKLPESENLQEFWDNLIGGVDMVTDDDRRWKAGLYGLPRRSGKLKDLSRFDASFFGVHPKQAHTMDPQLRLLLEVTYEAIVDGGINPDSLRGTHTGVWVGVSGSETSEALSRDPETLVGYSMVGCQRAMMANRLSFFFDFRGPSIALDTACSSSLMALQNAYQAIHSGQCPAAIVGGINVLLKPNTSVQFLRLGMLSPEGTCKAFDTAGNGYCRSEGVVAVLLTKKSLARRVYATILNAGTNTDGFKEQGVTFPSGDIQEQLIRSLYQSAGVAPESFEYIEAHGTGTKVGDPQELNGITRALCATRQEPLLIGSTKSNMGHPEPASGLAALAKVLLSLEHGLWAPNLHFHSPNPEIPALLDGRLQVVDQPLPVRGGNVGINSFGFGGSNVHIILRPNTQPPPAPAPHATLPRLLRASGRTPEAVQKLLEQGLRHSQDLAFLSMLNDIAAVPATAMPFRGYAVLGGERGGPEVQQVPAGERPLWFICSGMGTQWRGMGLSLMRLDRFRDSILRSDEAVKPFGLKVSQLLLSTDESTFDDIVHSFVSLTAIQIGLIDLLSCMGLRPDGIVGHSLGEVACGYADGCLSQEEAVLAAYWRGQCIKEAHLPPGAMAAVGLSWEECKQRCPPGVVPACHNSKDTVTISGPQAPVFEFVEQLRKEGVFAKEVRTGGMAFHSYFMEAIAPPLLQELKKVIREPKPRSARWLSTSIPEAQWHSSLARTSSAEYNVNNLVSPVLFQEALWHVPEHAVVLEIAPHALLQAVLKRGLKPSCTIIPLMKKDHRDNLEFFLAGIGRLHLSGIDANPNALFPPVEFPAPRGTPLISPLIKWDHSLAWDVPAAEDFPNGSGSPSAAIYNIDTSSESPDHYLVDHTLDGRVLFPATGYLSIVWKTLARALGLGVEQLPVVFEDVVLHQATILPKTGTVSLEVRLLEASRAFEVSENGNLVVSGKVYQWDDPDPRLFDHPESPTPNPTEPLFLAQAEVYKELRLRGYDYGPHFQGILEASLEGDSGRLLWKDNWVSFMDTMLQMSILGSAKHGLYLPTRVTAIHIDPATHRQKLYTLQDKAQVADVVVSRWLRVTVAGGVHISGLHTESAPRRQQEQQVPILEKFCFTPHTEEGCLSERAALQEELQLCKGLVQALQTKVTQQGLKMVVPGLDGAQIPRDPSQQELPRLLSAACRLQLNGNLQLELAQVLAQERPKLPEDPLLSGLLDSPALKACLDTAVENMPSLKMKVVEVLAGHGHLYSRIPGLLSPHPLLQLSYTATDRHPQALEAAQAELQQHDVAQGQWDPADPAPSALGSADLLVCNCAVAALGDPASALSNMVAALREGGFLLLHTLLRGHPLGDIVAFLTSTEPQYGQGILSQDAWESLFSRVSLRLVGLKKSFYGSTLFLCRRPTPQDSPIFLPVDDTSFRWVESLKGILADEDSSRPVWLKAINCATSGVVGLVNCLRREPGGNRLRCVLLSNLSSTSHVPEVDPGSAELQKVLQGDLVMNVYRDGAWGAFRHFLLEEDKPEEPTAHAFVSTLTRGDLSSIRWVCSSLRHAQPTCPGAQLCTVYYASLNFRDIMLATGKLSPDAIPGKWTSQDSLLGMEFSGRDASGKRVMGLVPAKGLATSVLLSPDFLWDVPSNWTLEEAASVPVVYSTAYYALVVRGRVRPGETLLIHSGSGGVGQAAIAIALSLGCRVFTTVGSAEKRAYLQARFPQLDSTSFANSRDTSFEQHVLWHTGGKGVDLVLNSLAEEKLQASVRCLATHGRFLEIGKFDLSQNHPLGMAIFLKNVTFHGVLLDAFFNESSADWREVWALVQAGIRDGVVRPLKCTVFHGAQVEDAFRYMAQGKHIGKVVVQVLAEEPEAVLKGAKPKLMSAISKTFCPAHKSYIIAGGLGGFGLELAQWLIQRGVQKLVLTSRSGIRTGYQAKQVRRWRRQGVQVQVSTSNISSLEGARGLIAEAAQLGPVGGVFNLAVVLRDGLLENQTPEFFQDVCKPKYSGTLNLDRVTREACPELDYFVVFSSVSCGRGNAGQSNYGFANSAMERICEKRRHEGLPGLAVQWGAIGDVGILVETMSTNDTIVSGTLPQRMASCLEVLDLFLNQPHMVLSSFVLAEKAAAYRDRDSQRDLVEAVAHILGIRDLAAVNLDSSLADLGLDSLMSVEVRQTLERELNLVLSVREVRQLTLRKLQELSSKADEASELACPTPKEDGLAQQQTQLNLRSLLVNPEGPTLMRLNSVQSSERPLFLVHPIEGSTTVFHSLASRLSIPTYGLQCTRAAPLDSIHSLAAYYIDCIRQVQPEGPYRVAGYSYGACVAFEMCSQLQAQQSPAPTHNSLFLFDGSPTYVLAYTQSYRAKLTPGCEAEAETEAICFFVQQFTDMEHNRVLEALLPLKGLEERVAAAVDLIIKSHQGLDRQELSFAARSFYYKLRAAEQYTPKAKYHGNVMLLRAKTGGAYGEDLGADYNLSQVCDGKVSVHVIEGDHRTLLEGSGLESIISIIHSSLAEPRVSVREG
Compound,IC50 [1],IC50 (HS 27 cells),IC50 (SKBr 3 cells),other results
C/C=C/C/C=C/CCCN1C(=O)C=CC1=O [CTC014],> 92 µM,> 50 µM,> 50 µM,
"CC(=O)[C@H]1CC[C@H]2[C@@H]3CCC4=CC(=O)CC[C@]4(C)[C@H]3CC[C@]12C [progesterone, reference compound]",,,,increase in fatty acid synthase expression [2]: 5-10 fold
insulin: insulin,,,,effect on fatty acid synthase expression [2]: only slightly stimulatory
CCCCCC/C=C/C=C/C=N/NN=O [Triacsin A],,,,mechanism of inhibition of acyl CoA-synthetase (acyl CoA-synthetase): competitive
insulin growth factor-1: insulin growth factor-1,,,,effect on fatty acid synthase expression [2]: only slightly stimulatory
"C/C=C/C/C=C/CCC(=O)[C@H]1O[C@H]1C(N)=O [CTC002, (2S) (3R) 2,3-epoxy-4-oxo-7,10 dodecadienoyl amide]",8.6 µM,20 µM,20 µM,"in vitro activity against Mycobacterium tuberculosis [3]: no activity; type of inhibition of fatty acid synthase (fatty acid synthase): specific and non-competitive inhibitor; in vitro activity against some bacteria, actinomycetes, and mycobacteria [4]: some in vitro activity; inhibition of myristoylation of proteins [5]: does not specifically inhibit; inhibition of viral HIV protease, concentration (HIV protease): 5 mg/mL; IC50 [6]: 0.4 µM; MIC (Candida albicans): < 1.5 µg/mL; growth inhibition of carcinoma lines [7]: potently inhibit the growth"
"CCC/C=C/C/C=C/C=C/C=NN=NO [Triacsin C, 1-hydroxy-3-(E, E, E-2',4',7'-undecatrienylidine) triazene]",,,,"IC50 [8]: 8.7 µM; growth inhibition, concentration (Raji cells): 1.0 µM; growth inhibition of Hela cells (Hela cells): inhibit growth; growth inhibition of Vero cells (Vero cells): inhibit growth"
C/C=C/C/C=C/CCN1C(=O)C=CC1=O [CTC013],> 97 µM,63 µM,63 µM,
Cc1cccc(/C=C/CCC(=O)C2OC2C(N)=O)c1 (centres unmarked) [CTC006],10.4 µM,32 µM,21 µM,IC50 [6]: 82 µM; MIC (M. tuberculosis): 25 µg/mL
"N[C@@H](Cc1cc(I)c(Oc2ccc(O)c(I)c2)c(I)c1)C(=O)O [T3, reference compound]",,,,effect on fatty acid synthase expression [2]: no effect
Cc1cccc(/C=C/CCC2C=CC(=O)O2)c1 (centres unmarked) [CTC003],> 100 µM,> 50 µM,> 50 µM,
Cc1cccc(/C=C/CCC(O)C2OC2C(N)=O)c1 (centres unmarked) [CTC004],> 100 µM,> 50 µM,> 50 µM,
Cc1cccc(/C=C/CCCN2C(=O)C=CC2=O)c1 [CTC005],> 78 µM,> 50 µM,> 50 µM,
CCCCCCCCCCCCCCOc1ccc(C(=O)O)o1 [TOFA],,,,anti-proliferative effect [9]: anti-proliferative effect
